Results as given in patent publication US20180187263A1, “KITS FOR DIAGNOSTIC DETECTION AND PREVENTION OF FEEDLOT BOVINE RESPIRATORY DISEASE” (Iowa State University Research Foundation, Inc., priority 2017, published 2018).

Tests used:
Bovine PAFR = molecular target: T1, Bovine PAFR (Bos taurus, UniProt Q9TTY5); experiment: PAF-mediated intracellular calcium accumulation in BHK cells transiently expressing bovine PAFR; type: cell-based; details: 10 nM PAF; for block of bovine PAFR (PAF-mediated intracellular calcium accumulation), FIG. 12: antihistamines 1-100 nM; for block of bovine PAFR (PAF-mediated intracellular calcium accumulation), FIG. 11: antagonist 1-100 nM, PAFR antagonists panel
T1 construct: expressed in transfected cells; host or cells: BHK cells, transient, lipofectamine, pcDNA3.3
T1 sequence (Q9TTY5 whole entry): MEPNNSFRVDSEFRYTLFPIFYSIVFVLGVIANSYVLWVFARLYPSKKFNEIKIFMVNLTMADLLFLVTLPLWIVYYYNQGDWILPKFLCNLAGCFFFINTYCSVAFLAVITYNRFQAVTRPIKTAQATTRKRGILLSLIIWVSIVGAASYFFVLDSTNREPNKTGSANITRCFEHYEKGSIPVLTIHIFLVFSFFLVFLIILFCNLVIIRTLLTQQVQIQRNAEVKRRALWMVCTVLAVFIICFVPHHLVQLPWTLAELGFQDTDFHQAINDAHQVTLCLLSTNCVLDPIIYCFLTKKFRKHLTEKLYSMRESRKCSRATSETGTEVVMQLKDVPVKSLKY
Experimental: Bovine PAFR was cloned into pcDNA3.3 expression vector and transiently expressed in BHK tissue culture cells using lipofectamine as per Carlson et al., J Biol Chem, 271:23146053 (1996), herein incorporated by reference in its entirety. Ten nM PAF was then added to the cells in the presence of various concentrations of various antagonists: rupatadine, lexipafant (as in Kingsnorth, et al., BJS, 82:1414-20 (1995), herein incorporated in its entirety), and WEB2086 a PAF antagonist which has not been commercialized and/or used in humans to date (as in Casals-Stenzel et al., J of Pharmacolo Experimental Therapeutics, 241:974-81 (1987), herein incorporated in its entirety), as well as tripelennamine, a bovine-approved antihistamine at concentrations ranging between 1-100 nM. Intracellular calcium accumulation was monitored in the transfected cells using a commercially available kit (Abcam, Cambridge). IC50 values were then determined by identifying the concentration of the antagonist that reduced the maximal PAF-mediated intracellular calcium accumulation by 50%.
Various antihistamines were also tested. […] Intracellular calcium accumulation was monitored in the transfected cells using a commercially available kit (Abcam, Cambridge). IC50 values were then determined by identifying the concentration of the antagonist that reduced the maximal PAF-mediated intracellular calcium accumulation by 50%.

[1] = molecular target: T2, Bovine H1 histamine receptor (Bos taurus, UniProt P30546); experiment: histamine-mediated intracellular calcium accumulation in BHK cells transiently expressing bovine H1 histamine receptor; type: cell-based; details: 10 nM histamine
T2 construct: expressed in transfected cells; host or cells: BHK cells, transient, lipofectamine, pcDNA3.3
T2 sequence (P30546 whole entry): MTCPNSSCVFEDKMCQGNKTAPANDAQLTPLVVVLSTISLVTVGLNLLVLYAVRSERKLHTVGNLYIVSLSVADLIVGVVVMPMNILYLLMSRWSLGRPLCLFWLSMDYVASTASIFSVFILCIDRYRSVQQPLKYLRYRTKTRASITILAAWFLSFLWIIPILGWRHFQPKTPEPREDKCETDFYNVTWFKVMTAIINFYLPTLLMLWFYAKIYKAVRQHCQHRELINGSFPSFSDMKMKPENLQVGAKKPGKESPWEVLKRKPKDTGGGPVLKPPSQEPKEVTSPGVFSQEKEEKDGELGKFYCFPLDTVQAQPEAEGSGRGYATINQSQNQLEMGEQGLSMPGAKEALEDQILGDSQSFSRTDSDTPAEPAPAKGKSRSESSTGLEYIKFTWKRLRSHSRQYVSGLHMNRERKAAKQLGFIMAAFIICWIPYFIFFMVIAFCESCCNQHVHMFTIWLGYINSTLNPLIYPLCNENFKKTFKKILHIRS
Experimental: Bovine H1 histamine receptor was cloned into pcDNA3.3 expression vector and transiently expressed in BHK tissue culture cells using lipofectamine as per Carlson et al. Ten nM histamine was then added to the cells in the presence of various concentrations of rupatadine, tripelennamine, lexipafant, or WEB2086. Intracellular calcium accumulation was monitored in the transfected cells using a commercially available kit (Abcam, Cambridge, Mass.). IC50 values were then determined by identifying the concentration of the antagonist that reduced the maximal PAF-mediated intracellular calcium accumulation by 50%. […] Therefore, as showing in Examples 11 and 12, rupatadine is the only antihistamine that can also block the function of PAFR.

BRD in high-risk calves [2] = experiment: BRD prevention in high-risk calves, weekly injections (Example 13); type: in vivo; details: weekly injections over five weeks; rupatadine 7 mg/kg subcutaneous, tripelennamine 1 mg/kg, WEB2086 10 mg/kg; five calves per group
Experimental: Twenty-five high-risk BRD calves were transported to a new barn and five each were assigned to different treatment groups: no treatment, weekly subcutaneous injections of 7 mg/kg of rupatadine, weekly injections of 1 mg/kg tripelennamine, weekly injections of 10 mg/kg WEB2086, and weekly injections of 1 mg/kg tripelennamine and 10 mg/kg WEB2086. The animals were observed over the next five weeks twice daily for BRD. Any animal who required antibiotics for treating the clinical signs of BRD was classified as having BRD. […] Four of the five (80%, n=4 of 5) animals receiving tripelennamine only developed BRD.

BRD in feedlot calves = experiment: BRD prevention at the feedlot, drug in the feed (Examples 5-7); type: in vivo
Experimental: An initial study was performed to confirm BRD prevention at the feedlot using an anti-inflammatory composition comprising rupatadine, the oral inhibitor of PAFR. A total of 18 calves were evaluated with the treatment arm receiving a dosage rate of 0.3 mg/kg. Calves were provided the drug in the feed during the first three weeks after entering the feedlot which is within the high risk 6-week period following transfer of the animal. Calves were purchased from a location in Joplin, Mo. having an overall incidence of BRD at >40% which is higher than the standard incidence of about 10% in cattle.
A further study was performed to confirm BRD prevention at the feedlot using the anti-inflammatory composition comprising rupatadine. The same methodology of Example 5 was employed with the modification of the number of calves and the dosage rate. The dosage rate was increased to 0.6 mg/kg. The number of calves were increased to 24 in total. The results are consistent to the first trial, including: 41.7% of treated calves (n=5 of 12) developed BRD whereas 100% of untreated calves (n=12 of 12) developed BRD.
A further study was performed to confirm BRD prevention at the feedlot using the anti-inflammatory composition comprising rupatadine as outlined in Example 5 with the modification of the number of calves (20 total) and the dosage rate. The dosage rate increased to 1.2 mg/kg.

PAFR [3] = molecular target: T3, PAFR (Bos taurus, UniProt Q9TTY5); experiment: stress hormone- and commensal oral bacteria-mediated second messenger accumulation in calf blood cells; type: cell-based, cattle; details: 500 nM inhibitor; cortisol 5 ng/mL, norepinephrine 100 pg/mL, 10^6 CFUs/mL commensal oral bacteria; six hours at 37° C.
T3 construct: second messenger accumulation in calf blood cells that have an increase in expression of PAFR; endogenous in cells; host or cells: bovine whole blood cells (ex vivo)
T3 sequence (Q9TTY5 whole entry): as the sequence (Q9TTY5 whole entry) above
Description: A PAFR inhibitor blocks the stress hormone- and commensal oral bacteria-mediated second messenger accumulation in calf blood cells that have an increase in expression of PAFR. Studies presented in Example 1 and FIG. 1 were repeated with the inclusion of the compositions comprising the anti-inflammatory drug rupatadine according to the invention. Blood was drawn from 10 animals that have an increase in PAFR expression (those in which an RT-PCR amplicon was visible after 10-15 cycles) and 10 animals with “normal” or no PAFR expression (those in which an RT-PCR amplicon was visible after 30-45 cycles).
Approximately 5 mL of whole blood was collected from the jugular or caudal vein of non-transported juvenile and adult cattle. Blood was placed in EDTA tubes, aliquoted, and cortisol (5 ng/mL) and norepinephrine (100 pg/mL) were added to some of the blood. The next day, blood samples were incubated with 0 or 10^6 CFUs/mL of commensal oral bacteria, 0 or 500 nM of the inhibitor, and a second messenger reagent for six hours at 37° C. with gentle rolling. After the six-hour incubation period, blood samples were analyzed for the production of second messengers. Data was standardized based on second messenger production in the presence of vehicle. […] Fifty ng of total RNA was then subjected to semi-quantitative RT-PCR to confirm the PAFR expression status of each animal.

PAFR [4] = experiment: weekly blood PAFR level by qRT-PCR (Example 14); type: in vivo, calves
Experimental: Blood was extracted from all 25 calves was extracted weekly and the level of PAFR was assayed using qRT-PCR and the theoretical copies of transcript/200 ng of total RNA. […] However, it dropped the most in the weekly depot injection calves during the last three weeks of observations.

[5] = pharmacotherapeutic study, blood levels after oral administration; type: in vivo; details: daily oral doses of 30 mg/animal for 5 days; six calves; FIG. 9
Experimental: A pharmacotherapeutic study was completed to confirm the PAFRi survives the rumen and reaches therapeutic blood and lung concentrations following oral administration to feedlot calves. Six calves were purchased and given daily oral doses of 30 mg/animal of the drug rupatadine for 5 days. Blood was drawn five times on day one and twice per day thereafter to measure the blood levels of rupatadine.
In addition to the blood levels of the drug, the amount of the drug in the muscle tissue is also analyzed. Six recently weaned feedlot calves were orally dosed with […] of rupatadine once a day for five days, a dose that was determined based on allometric scaling from human data. Blood samples were taken at 0, 2, 4, 8, 12, 24, 48, 72, 96, and 120 hours after the first dose. Calves were euthanized at the 120-hour time point at which lungs samples were removed. Samples were submitted to the PhAST laboratory at Iowa State University, for LCMS-based quantitation of the drug and its primary metabolite that is pharmacologically active.

BRD in high-risk calves [6] = experiment: BRD prevention in high-risk calves, comparison of rupatadine treatment methods (Example 14); type: in vivo; details: for calves that developed BRD: five-week observation, n=6
Experimental: In order to test various treatment methods of rupatadine, 25 high-risk calves were transported to a new farm. Seven calves were used as controls, six were given rupatadine as a single oral dose of 1 mg/kg, six were given rupatadine as a single subcutaneous injection of 7 mg/kg, six calves were given weekly subcutaneous injections of 7 mg/kg rupatadine. The animals were observed over the next five weeks twice daily for BRD. Any animal who required antibiotics for treating the clinical signs of BRD was classified as having BRD.

lung pathology = experiment: lung necropsy after five weeks of treatment (Example 13); type: in vivo; details: after five weeks of weekly 7 mg/kg subcutaneous injections; BRD(+) calves usually >25%
Description: After the five weeks, the rupatadine treated animals were euthanized and the lungs removed and necropsied. Three veterinarians then assessed the lungs for signs of disease, such as abscessation or consolidation. […] Lung pathology in BRD(+) calves is usually >25%, and of the rupatadine treated animals, there was only about 5-10% disease identified by the veterinarians.

Row | Compound | block of bovine PAFR (PAF-mediated intracellular calcium accumulation), FIG. 12 (Bovine PAFR) | block of H1 histamine receptor function, FIG. 13 [1] | block of bovine PAFR (PAF-mediated intracellular calcium accumulation), FIG. 11 (Bovine PAFR) | animals that developed BRD (BRD in high-risk calves [2]) [%] | further results
1 | CC(CN1c2ccccc2Sc2ccccc21)N(C)C (stereo not shown) [promethazine] | do not block |  |  |  | 
2 | Cc1nnc2n1-c1sc(CCC(=O)N3CCOCC3)cc1C(c1ccccc1Cl)=NC2 [WEB2086] |  | fail to black | blocked | 100 | 
3 | Cc1cncc(CN2CCC(=C3c4ccc(Cl)cc4CCc4cccnc43)CC2)c1 [rupatadine, 8-chloro-11-[1-[(5-methyl-3-pyridyl)methyl]-4-piperidyliden]-6,11-dihydro-5H-benzo[5,6]cyclohepta[1,2-b]pyridine] | blocks | block | blocked | 0 | treated calves that developed BRD (BRD in feedlot calves; 0.3 mg/kg in the feed during first three weeks after entering feedlot, 8 treated calves, within 5 weeks): 50%; reduction in BRD (BRD in feedlot calves; 0.3 mg/kg in the feed, versus calves that received no drug): 50%; second messenger accumulation in samples with increased PAFR expression (PAFR [3]): indistinct from normal or non-expressing samples; decrease in PAFR expression over five weeks (PAFR [4]; weekly depot injection 7 mg/kg versus control and other rupatadine treatments, FIG. 21): greatest decrease; PAFR expression at 35 days (PAFR [4]; weekly injections 7 mg/kg, 35 days): below ‘normal’ expression; blood levels: time to reach therapeutic concentrations [5]: reaches therapeutic concentrations more rapidly than in humans; calves that developed BRD (BRD in high-risk calves [6]; single oral dose of 1 mg/kg): 100%; calves that developed BRD (BRD in high-risk calves [6]; single subcutaneous long-acting injection of 7 mg/kg): 83.3%; calves that developed BRD (BRD in high-risk calves [6]; weekly subcutaneous injections of 7 mg/kg): 16.7%; day on which BRD developed (BRD in high-risk calves [6]; weekly subcutaneous injections of 7 mg/kg, the one calf that developed BRD): 31 days; lung disease identified by the veterinarians (lung pathology): 5-10%
4 | COc1ccc(CN(CCN(C)C)c2ccccn2)cc1 [pyrilamine] | do not block |  |  |  | 
5 | CN(C)CCN(Cc1ccccc1)c1ccccn1 [tripelennamine] | do not block | block | not blocked | 80 | 
6 | CCOC(=O)[C@H](CC(C)C)N(C)S(=O)(=O)c1ccc(Cn2c(C)nc3cnccc32)cc1 [lexipafant] |  | fail to black | blocked |  | 
7 | OCCOCCN1CCN(C(c2ccccc2)c2ccc(Cl)cc2)CC1 (stereo not shown) [hydroxyazine, hydroxyzine] | do not block |  |  |  | 
8 | CN(C)CCOC(c1ccccc1)c1ccccc1 [diphenhydramine] | do not block |  |  |  | 
